Results on one cell line are retold here after the supplement of paper PMC10307832.

Common to all, as to experiment: relative viability (nuclei count vs DMSO), 5 days (fraction); higher = more cells survive
Compound in one test: CC(C)(C)c1nc(-c2cccc(NS(=O)(=O)c3c(F)cccc3F)c2F)c(-c2ccnc(N)n2)s1 [Dabrafenib]
The method in brief:
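Lung cancer cell lines in 1536-well plates were kept overnight at 37 °C, then pinned with five library-drug doses (not always all listed) spaced by √10 on vehicle-anchored plates. After 5 days without medium change, cells were fixed, permeabilised and Hoechst-stained in one step, imaged at 4×, and nuclei were counted with MetaXpress. Viability is treated-well nuclei divided by vehicle-well nuclei, taken as the median over plates. Plates passed only with control CV below 25% and at least one doubling.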

Compound in the test “VX-702 + Phenformin”: NC(=O)c1ccc(N(C(N)=O)c2c(F)cccc2F)nc1-c1ccc(F)cc1F [VX-702] + N=C(N)NC(=N)NCCc1ccccc1 [Phenformin] (partner 250 µM)
The procedure, abridged: (§1)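 Lung cancer cell lines in 1536-well plates were dosed by pin tool the day after seeding, either with one drug alone or with a fixed anchor-drug dose plus five library-drug doses (not always all listed) in √10 steps. After 5 days, cells were fixed and their nuclei stained in one step (final 0.05% Triton X-100, 1% formaldehyde, 1 ug/ml Hoechst), then counted on 4× images. Relative viability is the nuclei count in treated wells divided by that in vehicle wells. Values are medians of duplicate plates.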

Compound in the test “Dabrafenib + Vorinostat”: CC(C)(C)c1nc(-c2cccc(NS(=O)(=O)c3c(F)cccc3F)c2F)c(-c2ccnc(N)n2)s1 [Dabrafenib] + O=C(CCCCCCC(=O)Nc1ccccc1)NO [Vorinostat] (partner 1 µM)
The procedure, abridged:
as §1

Compound in the test “VX-702 + AZD7762”: NC(=O)c1ccc(N(C(N)=O)c2c(F)cccc2F)nc1-c1ccc(F)cc1F [VX-702] + NC(=O)Nc1cc(-c2cccc(F)c2)sc1C(=O)N[C@H]1CCCNC1 [AZD7762] (partner 0.2 µM)
The procedure, abridged:
as §1

Compound in the test “Dabrafenib + Tozasertib”: CC(C)(C)c1nc(-c2cccc(NS(=O)(=O)c3c(F)cccc3F)c2F)c(-c2ccnc(N)n2)s1 [Dabrafenib] + Cc1cc(Nc2cc(N3CCN(C)CC3)nc(Sc3ccc(NC(=O)C4CC4)cc3)n2)n[nH]1 [Tozasertib] (partner 0.1 µM)
The procedure, abridged:
as §1

For SW 900, the relative viability in the test with Dabrafenib (0.009487 µM) stood at 0.84; in the test with Dabrafenib (0.03 µM), 0.589; in the test with Dabrafenib (0.09487 µM), 0.665; in the test with Dabrafenib (0.3 µM), 1.02; with VX-702 + Phenformin (first compound 0.02 µM) it was 0.634; in the test with VX-702 + Phenformin (first compound 0.2 µM), 0.585. Further, the relative viability was found to be 0.869 with VX-702 + Phenformin (first compound 0.6325 µM); 0.546 with VX-702 + Phenformin (first compound 2 µM); 0.455 in the test with Dabrafenib + Vorinostat (first compound 0.009487 µM); 0.714 with Dabrafenib + Vorinostat (first compound 0.09487 µM); 0.596 in the test with Dabrafenib + Vorinostat (first compound 0.3 µM); 0.611 in the test with VX-702 + AZD7762 (first compound 0.02 µM). The relative viability stood at 0.502 with VX-702 + AZD7762 (first compound 0.2 µM); 0.492 with VX-702 + AZD7762 (first compound 0.6325 µM); 0.572 with VX-702 + AZD7762 (first compound 2 µM); 0.711 with Dabrafenib + Tozasertib (first compound 0.009487 µM); 0.527 with Dabrafenib + Tozasertib (first compound 0.03 µM); 0.632 with Dabrafenib + Tozasertib (first compound 0.3 µM).
